Structures are written as SMILES. Active and inactive are the calls of the source. No cut-off for these calls is given here.

The nature of data set [1]: Cytotoxicity against human ECA109 cells assessed as decrease in cell proliferation after 48 hrs by MTT assay. In kind it is functional, cell-based. The conditions noted are these: ECa-109, 48 h. (In general: Tetrazolium assays rely on reduction of a dye to a coloured formazan, in cell work by metabolically active cells.)
The nature of data set [2]: Cytotoxicity against HEEC assessed as decrease in cell proliferation after 48 hrs by MTT assay. The conditions noted are these: human, HEEC cells. It is filed as toxicity.
Data set [3] can be described thus: Cytotoxicity against human HeLa cells assessed as decrease in cell proliferation after 48 hrs by MTT assay. In kind it is functional, cell-based.
Data set [4] concerns the target T1, DNA topoisomerase 1 (Homo sapiens) (UniProt P11387).
T1 sequence (whole entry): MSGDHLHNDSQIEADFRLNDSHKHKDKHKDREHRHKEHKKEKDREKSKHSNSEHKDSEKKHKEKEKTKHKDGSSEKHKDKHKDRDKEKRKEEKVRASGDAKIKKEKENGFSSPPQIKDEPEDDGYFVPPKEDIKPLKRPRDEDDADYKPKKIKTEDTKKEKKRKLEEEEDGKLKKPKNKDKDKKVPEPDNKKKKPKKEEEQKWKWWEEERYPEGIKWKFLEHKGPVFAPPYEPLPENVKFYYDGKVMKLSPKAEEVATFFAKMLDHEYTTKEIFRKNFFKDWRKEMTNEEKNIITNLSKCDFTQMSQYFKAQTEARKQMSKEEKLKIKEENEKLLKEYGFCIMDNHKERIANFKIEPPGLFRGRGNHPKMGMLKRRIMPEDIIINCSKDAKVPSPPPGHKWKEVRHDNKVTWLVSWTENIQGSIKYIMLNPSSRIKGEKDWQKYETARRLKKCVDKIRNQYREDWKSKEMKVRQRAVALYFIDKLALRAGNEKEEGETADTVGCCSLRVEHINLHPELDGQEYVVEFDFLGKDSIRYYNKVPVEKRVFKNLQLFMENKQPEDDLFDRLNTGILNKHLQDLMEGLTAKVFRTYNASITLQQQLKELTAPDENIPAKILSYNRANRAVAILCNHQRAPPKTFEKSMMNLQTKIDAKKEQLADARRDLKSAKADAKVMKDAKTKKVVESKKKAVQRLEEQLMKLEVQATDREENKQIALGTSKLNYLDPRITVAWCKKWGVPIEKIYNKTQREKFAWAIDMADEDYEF
The data set can be described thus: Inhibition of DNA topoisomerase-1 (unknown origin)-mediated supercoiled pBR322 DNA relaxation at 25 uM after 30 mins by agarose gel electrophoresis.

Data set [5] relates to HeLa. The data set can be described thus: Induction of apoptosis in human HeLa cells assessed as chromatin condensation at IC50 after 48 hrs by Hoechst 33342 staining-based fluorescence microscopic method. In kind it is functional, cell-based.
For data set [6], the system named is HeLa. The experiment in a line: Induction of apoptosis in human HeLa cells assessed as chromatin fragmentation at IC50 after 48 hrs by Hoechst 33342 staining-based fluorescence microscopic method. It is filed as functional, cell-based.
Data set [7] addresses T1, DNA topoisomerase 1 (Homo sapiens). The data set can be described thus: Inhibition of DNA topoisomerase-1 (unknown origin)-mediated supercoiled pBR322 DNA relaxation at 5 uM after 30 mins by agarose gel electrophoresis.
Data set [8] has the same target. The experiment in a line: Inhibition of DNA topoisomerase-1 (unknown origin)-mediated supercoiled pBR322 DNA relaxation at 100 uM after 30 mins by agarose gel electrophoresis.

Broadly, the IC50 is the concentration at which inhibition is half-maximal. `O=C1C(O)=C(C(c2ccc(Cl)cc2)c2c[nH]c3ccccc23)C(=O)c2ccccc21` (stereo not given): the half-maximal inhibitory concentration (IC50) in data set [1] came to 45.8 µM; in data set [3], 37 µM. In addition, the IC50 at 48 h in data set [2] worked out at 102 µM.
As for `O=C1C(O)=C(C(c2ccc([N+](=O)[O-])cc2)c2c[nH]c3ccc(Br)cc23)C(=O)c2ccccc21` (stereo not given), the IC50 in data set [1] stood at 16.9 µM; in data set [3], 14.1 µM. In addition, in data set [2], the IC50 at 48 h was determined as 45.2 µM.
For the compound `O=C1C(O)=C(C(c2ccc(F)cc2)c2c[nH]c3ccccc23)C(=O)c2ccccc21` (stereo not given), the half-inhibitory concentration (IC50) in data set [1] turned out to be 28.1 µM; in data set [3], 15.8 µM. In data set [2], the IC50 at 48 h stood at 65.2 µM.
On the same counts, the results for `O=C1C(O)=C(C(c2ccc([N+](=O)[O-])cc2)c2c[nH]c3ccccc23)C(=O)c2ccccc21` (stereo not given) are 60.9 µM, 14.8 µM and greater than 200 µM.
As to `O=C1C(O)=C(C(c2ccccc2)c2c(-c3ccccc3)[nH]c3ccccc23)C(=O)c2ccccc21` (stereo not given), the figures for the IC50 in data set [1] and in data set [3] were 5.18 µM and 18.8 µM, respectively. The IC50 at 48 h in data set [2] was found to be 26.4 µM.
On the same counts, the results for `COc1ccccc1C(C1=C(O)C(=O)c2ccccc2C1=O)c1c[nH]c2ccccc12` (stereo not given) are greater than 200 µM, 128 µM and greater than 200 µM.
In the same order, the values of `O=C1C(O)=C(C(c2cccs2)c2c[nH]c3ccccc23)C(=O)c2ccccc21` (stereo not given) are 12.1 µM, 12.4 µM and 31.2 µM.
With `O=C1C(O)=C(C(c2cccc([N+](=O)[O-])c2)c2c(-c3ccccc3)[nH]c3ccccc23)C(=O)c2ccccc21` (stereo not given), the IC50 in data set [1] is 5.83 µM; in data set [3] it was 12.5 µM. Further, the IC50 at 48 h in data set [2] was determined as 13.4 µM. The inhibition entry in data set [4] is “Active”.
Regarding `Cc1[nH]c2ccccc2c1C(C1=C(O)C(=O)c2ccccc2C1=O)c1ccc([N+](=O)[O-])cc1` (stereo not given), the IC50 in data set [1] is 6 µM; in data set [3] it was 4.57 µM. In addition, the IC50 at 48 h in data set [2] is 15.1 µM. Moreover, the result in the data set with HeLa [5] and in the data set with HeLa [6] was Active. In addition, the inhibition result in data set [4] is “Active”.
With `O=C1C(O)=C(C(c2cccc([N+](=O)[O-])c2)c2c[nH]c3ccccc23)C(=O)c2ccccc21` (stereo not given), the IC50 in data set [1] is 36.1 µM; in data set [3], 24.9 µM. Also, the IC50 at 48 h in data set [2] worked out at 91.2 µM.
Regarding `O=C1C(O)=C(C(c2ccc([N+](=O)[O-])cc2)c2c(-c3ccccc3)[nH]c3ccccc23)C(=O)c2ccccc21` (stereo not given), the figures for the IC50 in data set [1] and in data set [3] were 5.08 µM and 6.77 µM, respectively. Further, in data set [2], the 50% inhibitory concentration (IC50) at 48 h was found to be 14.2 µM. Also, the outcome in the data set with HeLa [5] and in the data set on HeLa [6] was Active. Moreover, the inhibition result in data set [7] is “Active”.
As for `COc1cc(C(C2=C(O)C(=O)c3ccccc3C2=O)c2c[nH]c3ccc(Br)cc23)cc(OC)c1OC` (stereo not given), the figures for the IC50 in data set [1] and in data set [3] were 13 µM and 9.71 µM, respectively. Further, the IC50 at 48 h in data set [2] came out at 36.3 µM. Further, the inhibition result in data set [8] was “Active”.
As for `COc1ccc(C(C2=C(O)C(=O)c3ccccc3C2=O)c2c[nH]c3ccccc23)cc1Br` (stereo not given), the IC50 in data set [1] amounted to 11.8 µM; in data set [3], 7.32 µM. Besides, in data set [2], the IC50 at 48 h was 25.2 µM. In addition, in data set [4], the inhibition result was “Active”.
In the case of `COc1cccc(C(C2=C(O)C(=O)c3ccccc3C2=O)c2c[nH]c3ccccc23)c1` (stereo not given), the IC50 in data set [1] is 40 µM; in data set [3] it was 25.6 µM. Moreover, in data set [2], the 50% inhibitory concentration (IC50) at 48 h was 110 µM.
On the same counts, the results for `CC(C)=CCC1=C(O)C(=O)c2ccccc2C1=O` [LAPACHOL] are 12.6 µM, 20.4 µM and 20.2 µM.
Take `Cc1[nH]c2ccccc2c1C(C1=C(O)C(=O)c2ccccc2C1=O)c1ccc(Cl)cc1` (stereo not given): the IC50 in data set [1] was 14.3 µM; in data set [3] it was 8.03 µM. Besides, the IC50 at 48 h in data set [2] was determined as 40.2 µM.
Consider `CC[C@@]1(O)C(=O)OCc2c1cc1n(c2=O)Cc2cc3ccccc3nc2-1` [CAMPTOTHECIN], for which the results for the IC50 in data set [1] and in data set [3] were 9.52 µM and 11.4 µM, respectively. Further, in data set [2], the IC50 at 48 h amounted to 17.7 µM.

The values are drawn from ChEMBL document CHEMBL3860081, “Design, synthesis and biological evaluation of lapachol derivatives possessing indole scaffolds as topoisomerase I inhibitors” (Bioorg Med Chem, 2016).
